From US8480909B2, “Method for treatment of canals” (priority 2009, dated 2013)
Entries after “also recorded” stand apart in the source; their conditions may differ.

Tests used:
rats = conditions: oral; cited from earlier work
algae = test: Treatment of agricultural-water canal with air-stream-entrained calcium hypochlorite; visual observation of algae; assay type: in vivo; conditions: per quarter-mile canal section
Text: The device and method of the present invention were employed to treat a canal, and visual observations of the amount of algae present in the canal before this treatment, and periodically after this treatment, are set forth in Tables 1-3 below. (The visual observations are accurate and realistic evaluations because the visual amount of algae in the canal correlates well to actual biological-debris problems.) This canal is fed from a large water reservoir which has about thirty percent of its surface covered with algae. This canal is therefore continuously being inoculated with algae which enters with the source water. The flow rate of the water when entering the canal is about one hundred eighty cubic feet per second. Due to water usage from the various growers along the canal, this initial water flow rate decreases at points along the canal, and then decreases dramatically over the last mile to about twenty cubic feet per second. This canal is a typical example of one which is in need of treatment to remediate organic debris. Prior to the treatments of this Example 1, this canal was being point treated with acrolein every eight to ten days during the height of the irrigation season to obtain a satisfactory treatment. In this Example 1, the canal was treated three times along substantially its entire length by propelling a calcium hypochlorite-entrained air stream to the water surface and to the sides of the canal from a delivery system suspended off a mobile unit as described above. An operator made visual assessments of the degree of organic debris build-up along the canal and adjusted the concentration of calcium hypochlorite in the air stream accordingly. The pre-treatment and post-treatment conditions of the canal are shown in Tables 1, 2 and 3 below where the visual assessment of organic debris, made at each quarter mile along the length of the canal, are reported at: (a) just before treatment; (b) twelve hours after the treatment; (c) about a week (seven or eight days) after the treatment; and about a week and a half (ten, twelve and ten days, respectively) after treatment. The just before treatment assessment for the second and third treatments set forth in Tables 2 and 3 below are also continued-assessments of the prior treatment (i.e., the T2-b observations in Table 2 are the same as the T1-10d observations in Table 1, and the T3-b observations in Table 3 are the same as the T2-12d observations in Table 2). Further, any relative terms in an observation refer to the prior observation made at the given time; for example, the “slightly larger patches” observation under T1-10d at 0.75 to 1.00 miles in Table 1 below refers to the patches being slightly larger than the patches observed at T1-10d at 0.50 to 0.75 miles, and not to the canal condition observed at T1-7d at 0.75 to 1.00 miles.

zooplankton = conditions: cited from earlier work
crustaceans = conditions: cited from earlier work
fish = conditions: cited from earlier work
amphibians = conditions: cited from earlier work
mollusks = conditions: cited from earlier work
insects = conditions: cited from earlier work
[1] = cited from earlier work

In the case of `[Ca+2].[O-]Cl.[O-]Cl` [calcium hypochlorite], the LD50 (rats) is given as 850 gm/100 kg, the “Canal Description (visual observation of algae)” value (from here on “Canal Description”) (algae; T1-12 h: 12 hr. after Treatment 1, canal section 2.75 to 3.00 miles) is given as “Canal visually free of algae” and the “Canal Description” value (algae; T1-12 h: 12 hr. after Treatment 1, canal section 3.25 to 3.50 miles) is given as “Canal is visually free of algae”. The “Canal Description” value (algae; T1-12 h: 12 hr. after Treatment 1, canal section 4.75 to 5.00 miles) was “Small amounts of discolored/dying algae are adhering to the bottom of the canal”, the “Canal Description” value (algae; T1-12 h: 12 hr. after Treatment 1, canal section 5.50 to 5.75 miles) was “Small amounts of discolored/dying algae are adhering to bottom of the canal” and the “Canal Description” value (algae; T1-12 h: 12 hr. after Treatment 1, canal section 5.75 to 6.00 miles) was “Small amounts of discolored/dying algae are adhering to the bottom and sides of”. The “Canal Description” value (algae; T1-7 d: 7 days after Treatment 1, canal section 0.00 to 0.25 miles) was “Clear, visually free of algae”, the “Canal Description” value (algae; T1-7 d: 7 days after Treatment 1, canal section 2.75 to 3.00 miles) was “Slight amount of algae is growing on the water surface of the canal” and the “Canal Description” value (algae; T1-7 d: 7 days after Treatment 1, canal section 3.25 to 3.50 miles) was “Slight amount of algae is growing on the water surface and along the sides of”. The “Canal Description” value (algae; T1-7 d: 7 days after Treatment 1, canal section 5.25 to 5.50 miles) was “Slight amount of is algae is growing on the water surface and along the sides”, the “Canal Description” value (algae; T1-7 d: 7 days after Treatment 1, canal section 5.50 to 5.75 miles) was “Slight amount of algae is growing on the water surface and along the sides” and the “Canal Description” value (algae; T1-7 d: 7 days after Treatment 1, canal section 6.50 to 6.75 miles) was “Small amount of algae is growing on the water surface. Slight amount of algae”. The “Canal Description” value (algae; T1-7 d: 7 days after Treatment 1, canal section 6.75 to 7.00 miles) was “Small amount of algae is growing on the water surface. Small amount of algae”, the “Canal Description” value (algae; T1-10 d: 10 days after Treatment 1) was “Slight amount of algae is growing along the sides of the canal; also recorded: Slight amount of algae is growing on the water surface and along the sides of; also recorded: Small amount of algae is growing on the water surface and along the sides of; also recorded: Slightly larger patches of algae are growing on the water surface and along” and the “Canal Description” value (algae; T2-12 h: 12 hr. after Treatment 2) was “Canal visually free of algae; also recorded: Small amounts of discolored/dying algae are adhering to bottom of the canal; also recorded: Small amounts of discolored/dying algae are adhering to the bottom and sides of”. The “Canal Description” value (algae; T2-8 d: 8 days after Treatment 2, canal section 0.00 to 0.25 miles) was “Clear, visually free of algae”, the “Canal Description” value (algae; T2-8 d: 8 days after Treatment 2, canal section 3.00 to 3.25 miles) was “Slight amount of algae is growing on the water surface of the canal” and the “Canal Description” value (algae; T2-8 d: 8 days after Treatment 2, canal section 4.00 to 4.25 miles) was “Slight amount of algae is growing on the water surface and along the sides of”. For the same compound, the “Canal Description” value (algae; T2-8 d: 8 days after Treatment 2, canal section 5.50 to 5.75 miles) was “Slight amount of algae is growing on the water surface and along the sides”, the “Canal Description” value (algae; T2-8 d: 8 days after Treatment 2, canal section 6.50 to 6.75 miles) was “Small amount of algae is growing on the water surface. The amount of algae” and the “Canal Description” value (algae; T2-8 d: 8 days after Treatment 2, canal section 6.75 to 7.00 miles) was “Small amount of algae on the water surface. The amount of algae on the sides”. For the same compound, the “Canal Description” value (algae; T2-12 d: 12 days after Treatment 2) was “Very slight amount of algae is growing along the sides of the canal; also recorded: Slight amount of algae is growing along the sides of the canal; also recorded: Slight amount of algae is growing on the water surface and along the sides; also recorded: Slight amount of algae is growing on water surface and along the sides and; also recorded: Slightly more algae is growing on water surface and along the sides of the; also recorded: Slightly more algae is growing on the water surface and along the sides of”, the “Canal Description” value (algae; T2-b: just before Treatment 2, 10 days after Treatment 1) was “Slight amount of algae is growing on the water surface and along the sides of the; also recorded: Slightly larger patches of algae are growing on the water surface and along the sides; also recorded: Slight amount of algae is growing along the sides of the canal” and the “Canal Description” value (algae; T3-12 h: 12 hr. after Treatment 3, canal section 3.25 to 3.50 miles) was “Canal visually free of algae”. For the same compound, the “Canal Description” value (algae; T3-12 h: 12 hr. after Treatment 3, canal section 5.00 to 5.25 miles) was “Small amounts of discolored/dying algae are present”, the “Canal Description” value (algae; T3-12 h: 12 hr. after Treatment 3, canal section 5.75 to 6.00 miles) was “Small amounts of discolored/dying algae are adhering to the bottom and sides of” and the “Canal Description” value (algae; T3-b: just before Treatment 3, 12 days after Treatment 2) was “Slight amount of algae is growing along the sides of the canal; also recorded: Slightly more algae is growing on the water surface and along the sides of the canal; also recorded: More algae is growing on the water surface of the canal. Small amount of algae is; also recorded: Very slight amount of algae is growing along the sides of the canal; also recorded: More algae is growing on the water surface of the canal. More algae is growing up”.

In the case of `C=CC=O` [Acrolein], the average acute toxicity (zooplankton) is given as “highly toxic”, the average acute toxicity (crustaceans) is given as “moderately toxic” and the average acute toxicity (fish) is given as “highly toxic”. The average acute toxicity (amphibians) was “very highly toxic”, the average acute toxicity (mollusks) was “highly toxic” and the average acute toxicity (insects) was “moderately toxic”. For the same compound, the water solubility [1] was 238,000 mg/L.
